ChEMBL document CHEMBL1671626, “In vitro profiling of ceftaroline against a collection of recent bacterial clinical isolates from across the United States” (2008)
≈ marks a conversion by molar mass, not a printed value.

Legend:
Format in all cases: functional
Streptococcus pneumoniae [1] = assay: Antibacterial activity against penicillin-resistant Streptococcus pneumoniae assessed as susceptible isolates by CLSI M7-A7 broth microdilution method
Streptococcus viridans [2] = assay: Antibacterial activity against penicillin-susceptible Streptococcus viridans assessed as resistant isolates by CLSI M7-A7 broth microdilution method
Pasteurella multocida [3] = assay: Antibacterial activity against Pasteurella multocida assessed as susceptible isolates by CLSI M7-A7 broth microdilution method
Pasteurella multocida [4] = assay: Antibacterial activity against Pasteurella multocida by CLSI M7-A7 broth microdilution method
Enterococcus faecalis [5] = assay: Antibacterial activity against vancomycin-susceptible Enterococcus faecalis assessed as susceptible isolates by CLSI M7-A7 broth microdilution method
Streptococcus pyogenes [6] = assay: Antibacterial activity against erythromycin-susceptible Streptococcus pyogenes by CLSI M7-A7 broth microdilution method
Staphylococcus aureus [7] = assay: Antibacterial activity against coagulase-negative and oxacillin-susceptible Staphylococcus aureus assessed as susceptible isolates by CLSI M7-A7 broth microdilution method
Staphylococcus aureus [8] = assay: Antibacterial activity against methicillin-resistant Staphylococcus aureus assessed as resistant isolates by CLSI M7-A7 broth microdilution method
Enterococcus faecalis [9] = assay: Antibacterial activity against vancomycin-resistant Enterococcus faecalis by CLSI M7-A7 broth microdilution method
Streptococcus viridans [10] = assay: Antibacterial activity against penicillin-nonsusceptible Streptococcus viridans by CLSI M7-A7 broth microdilution method
Streptococcus pneumoniae [11] = assay: Antibacterial activity against penicillin-resistant Streptococcus pneumoniae assessed as resistant isolates by CLSI M7-A7 broth microdilution method
Enterococcus faecium [12] = assay: Antibacterial activity against vancomycin-resistant Enterococcus faecium assessed as resistant isolates by CLSI M7-A7 broth microdilution method
Streptococcus pyogenes [13] = assay: Antibacterial activity against erythromycin-nonsusceptible Streptococcus pyogenes assessed as susceptible isolates by CLSI M7-A7 broth microdilution method
Streptococcus viridans [14] = assay: Antibacterial activity against penicillin-susceptible Streptococcus viridans by CLSI M7-A7 broth microdilution method
Streptococcus agalactiae [15] = assay: Antibacterial activity against erythromycin-nonsusceptible Streptococcus agalactiae by CLSI M7-A7 broth microdilution method
Streptococcus agalactiae [16] = assay: Antibacterial activity against erythromycin-nonsusceptible Streptococcus agalactiae assessed as susceptible isolates by CLSI M7-A7 broth microdilution method
Staphylococcus aureus [17] = assay: Antibacterial activity against coagulase-negative and oxacillin-resistant Staphylococcus aureus assessed as susceptible isolates by CLSI M7-A7 broth microdilution method
Enterococcus faecium [18] = assay: Antibacterial activity against vancomycin-resistant Enterococcus faecium assessed as susceptible isolates by CLSI M7-A7 broth microdilution method
Streptococcus pyogenes [19] = assay: Antibacterial activity against erythromycin-nonsusceptible Streptococcus pyogenes assessed as resistant isolates by CLSI M7-A7 broth microdilution method
Streptococcus pneumoniae [20] = assay: Antibacterial activity against penicillin-susceptible Streptococcus pneumoniae by CLSI M7-A7 broth microdilution method
Streptococcus pneumoniae [21] = assay: Antibacterial activity against penicillin-susceptible Streptococcus pneumoniae assessed as resistant isolates by CLSI M7-A7 broth microdilution method
Streptococcus viridans [22] = assay: Antibacterial activity against penicillin-nonsusceptible Streptococcus viridans assessed as resistant isolates by CLSI M7-A7 broth microdilution method
Enterococcus faecalis [23] = assay: Antibacterial activity against vancomycin-resistant Enterococcus faecalis assessed as susceptible isolates by CLSI M7-A7 broth microdilution method
Streptococcus agalactiae [24] = assay: Antibacterial activity against erythromycin-nonsusceptible Streptococcus agalactiae assessed as resistant isolates by CLSI M7-A7 broth microdilution method
Streptococcus pyogenes [25] = assay: Antibacterial activity against erythromycin-nonsusceptible Streptococcus pyogenes by CLSI M7-A7 broth microdilution method
Moraxella catarrhalis [26] = assay: Antibacterial activity against beta lactamase-positive Moraxella catarrhalis by CLSI M7-A7 broth microdilution method
Staphylococcus aureus [27] = assay: Antibacterial activity against methicillin-resistant Staphylococcus aureus by CLSI M7-A7 broth microdilution method
Staphylococcus aureus [28] = assay: Antibacterial activity against coagulase-negative and oxacillin-resistant Staphylococcus aureus by CLSI M7-A7 broth microdilution method
Streptococcus agalactiae [29] = assay: Antibacterial activity against erythromycin-susceptible Streptococcus agalactiae assessed as susceptible isolates by CLSI M7-A7 broth microdilution method
Streptococcus pneumoniae [30] = assay: Antibacterial activity against penicillin-susceptible Streptococcus pneumoniae assessed as susceptible isolates by CLSI M7-A7 broth microdilution method
Enterococcus faecalis [31] = assay: Antibacterial activity against vancomycin-resistant Enterococcus faecalis assessed as resistant isolates by CLSI M7-A7 broth microdilution method
Staphylococcus aureus [32] = assay: Antibacterial activity against methicillin-susceptible Staphylococcus aureus assessed as resistant isolates by CLSI M7-A7 broth microdilution method
Streptococcus pyogenes [33] = assay: Antibacterial activity against erythromycin-susceptible Streptococcus pyogenes assessed as susceptible isolates by CLSI M7-A7 broth microdilution method
Streptococcus viridans [34] = assay: Antibacterial activity against penicillin-nonsusceptible Streptococcus viridans assessed as susceptible isolates by CLSI M7-A7 broth microdilution method
Pasteurella multocida [35] = assay: Antibacterial activity against Pasteurella multocida assessed as resistant isolates by CLSI M7-A7 broth microdilution method
Staphylococcus aureus [36] = assay: Antibacterial activity against methicillin-susceptible Staphylococcus aureus assessed as susceptible isolates by CLSI M7-A7 broth microdilution method
Staphylococcus aureus [37] = assay: Antibacterial activity against methicillin-susceptible Staphylococcus aureus by CLSI M7-A7 broth microdilution method
Staphylococcus aureus [38] = assay: Antibacterial activity against coagulase-negative and oxacillin-susceptible Staphylococcus aureus assessed as resistant isolates by CLSI M7-A7 broth microdilution method
Enterococcus faecalis [39] = assay: Antibacterial activity against vancomycin-susceptible Enterococcus faecalis by CLSI M7-A7 broth microdilution method
Moraxella catarrhalis [40] = assay: Antibacterial activity against beta lactamase-positive Moraxella catarrhalis assessed as susceptible isolates by CLSI M7-A7 broth microdilution method
Enterococcus faecalis [41] = assay: Antibacterial activity against vancomycin-susceptible Enterococcus faecalis assessed as resistant isolates by CLSI M7-A7 broth microdilution method
Staphylococcus aureus [42] = assay: Antibacterial activity against coagulase-negative and oxacillin-susceptible Staphylococcus aureus by CLSI M7-A7 broth microdilution method
Streptococcus viridans [43] = assay: Antibacterial activity against penicillin-susceptible Streptococcus viridans assessed as susceptible isolates by CLSI M7-A7 broth microdilution method
Enterococcus faecium [44] = assay: Antibacterial activity against vancomycin-resistant Enterococcus faecium by CLSI M7-A7 broth microdilution method
Staphylococcus aureus [45] = assay: Antibacterial activity against methicillin-resistant Staphylococcus aureus assessed as susceptible isolates by CLSI M7-A7 broth microdilution method
Streptococcus agalactiae [46] = assay: Antibacterial activity against erythromycin-susceptible Streptococcus agalactiae by CLSI M7-A7 broth microdilution method
Moraxella catarrhalis [47] = assay: Antibacterial activity against beta lactamase-positive Moraxella catarrhalis assessed as resistant isolates by CLSI M7-A7 broth microdilution method
Staphylococcus aureus [48] = assay: Antibacterial activity against coagulase-negative and oxacillin-resistant Staphylococcus aureus assessed as resistant isolates by CLSI M7-A7 broth microdilution method
Streptococcus pneumoniae [49] = assay: Antibacterial activity against penicillin-resistant Streptococcus pneumoniae by CLSI M7-A7 broth microdilution method

## CC[C@H]1OC(=O)[C@H](C)[C@@H](O[C@H]2C[C@@](C)(OC)[C@@H](O)[C@H](C)O2)[C@H](C)[C@@H](O[C@@H]2O[C@H](C)C[C@H](N(C)C)[C@H]2O)[C@](C)(O)C[C@@H](C)C(=O)[C@H](C)[C@@H](O)[C@]1(C)O [ERYTHROMYCIN]
Streptococcus pneumoniae [1]
  Activity: 28.4%
Streptococcus viridans [2]
  Activity: 40.2%
Pasteurella multocida [3]
  Activity: 4.5%
Pasteurella multocida [4]
  MIC50: 2 µg/mL (≈ 2.73 µM)
  MIC90: 4 µg/mL (≈ 5.45 µM)
Enterococcus faecalis [5]
  Activity: 10.2%
Streptococcus pyogenes [6]
  MIC50: 0.03 µg/mL (≈ 0.0409 µM)
  MIC90: 0.06 µg/mL (≈ 0.0818 µM)
Staphylococcus aureus [7]
  Activity: 49.8%
Staphylococcus aureus [8]
  Activity: 94.4%
Enterococcus faecalis [9]
  MIC: > 1 µg/mL
Streptococcus viridans [10]
  MIC50: 2 µg/mL (≈ 2.73 µM)
  MIC90: > 16 µg/mL
Streptococcus pneumoniae [11]
  Activity: 71.6%
Enterococcus faecium [12]
  Activity: 92.3%
Streptococcus pyogenes [13]
  Activity: 0%
Streptococcus viridans [14]
  MIC50: 0.06 µg/mL (≈ 0.0818 µM)
  MIC90: 4 µg/mL (≈ 5.45 µM)
Streptococcus agalactiae [15]
  MIC50: 16 µg/mL (≈ 21.8 µM)
  MIC90: > 16 µg/mL
Streptococcus agalactiae [16]
  Activity: 0%
Staphylococcus aureus [17]
  Activity: 18.4%
Enterococcus faecium [18]
  Activity: 0%
Streptococcus pyogenes [19]
  Activity: 80%
Streptococcus pneumoniae [20]
  MIC50: 0.03 µg/mL (≈ 0.0409 µM)
  MIC90: 0.5 µg/mL (≈ 0.681 µM)
Streptococcus pneumoniae [21]
  Activity: 9.9%
Streptococcus viridans [22]
  Activity: 71.4%
Enterococcus faecalis [23]
  Activity: 0%
Streptococcus agalactiae [24]
  Activity: 92.9%
Streptococcus pyogenes [25]
  MIC50: 8 µg/mL (≈ 10.9 µM)
  MIC90: > 16 µg/mL
Moraxella catarrhalis [26]
  MIC: ≤ 0.12 µg/mL
  MIC50: ≤ 0.12 µg/mL
  MIC90: ≤ 0.12 µg/mL
Staphylococcus aureus [27]
  MIC50: > 8 µg/mL
Staphylococcus aureus [28]
  MIC50: > 8 µg/mL
Streptococcus agalactiae [29]
  Activity: 100%
Streptococcus pneumoniae [30]
  Activity: 89.1%
Enterococcus faecalis [31]
  Activity: 96%
Staphylococcus aureus [32]
  Activity: 32.5%
Streptococcus pyogenes [33]
  Activity: 100%
Streptococcus viridans [34]
  Activity: 21.4%
Pasteurella multocida [35]
  Activity: 77.3%
Staphylococcus aureus [36]
  Activity: 65.2%
Staphylococcus aureus [37]
  MIC50: 0.5 µg/mL (≈ 0.681 µM)
  MIC90: > 8 µg/mL
Staphylococcus aureus [38]
  Activity: 49.3%
Enterococcus faecalis [39]
  MIC50: > 8 µg/mL
  MIC90: > 8 µg/mL
Moraxella catarrhalis [40]
  Activity: 100%
Enterococcus faecalis [41]
  Activity: 59.9%
Staphylococcus aureus [42]
  MIC50: 1 µg/mL (≈ 1.36 µM)
  MIC90: > 8 µg/mL
Streptococcus viridans [43]
  Activity: 58.6%
Enterococcus faecium [44]
  MIC50: > 8 µg/mL
  MIC90: > 8 µg/mL
Staphylococcus aureus [45]
  Activity: 4.5%
Streptococcus agalactiae [46]
  MIC50: 0.03 µg/mL (≈ 0.0409 µM)
  MIC90: 0.06 µg/mL (≈ 0.0818 µM)
Moraxella catarrhalis [47]
  Activity: 0%
Staphylococcus aureus [48]
  Activity: 81.3%
Streptococcus pneumoniae [49]
  MIC50: 8 µg/mL (≈ 10.9 µM)
  MIC90: > 16 µg/mL
